According to patent US9926292B2, “Pyridinyl derivatives, pharmaceutical compositions and uses thereof” (Boehringer Ingelheim International GmbH, priority 2016, dated 2018):

Assays:
pigs = details: aminoguanidine 100 mg/kg and gavage of histamine 2 mg/kg; cited from earlier work
AOC3 = target: T1, AOC3 (Homo sapiens, UniProt Q16853); assay: AOC3 biochemical assay (MAO-Glo); details: Table 1; read-out: AOC3 IC50
T1 construct: expressed in transfected cells; host or cells: CHO cells
T1 sequence (Q16853 1-763): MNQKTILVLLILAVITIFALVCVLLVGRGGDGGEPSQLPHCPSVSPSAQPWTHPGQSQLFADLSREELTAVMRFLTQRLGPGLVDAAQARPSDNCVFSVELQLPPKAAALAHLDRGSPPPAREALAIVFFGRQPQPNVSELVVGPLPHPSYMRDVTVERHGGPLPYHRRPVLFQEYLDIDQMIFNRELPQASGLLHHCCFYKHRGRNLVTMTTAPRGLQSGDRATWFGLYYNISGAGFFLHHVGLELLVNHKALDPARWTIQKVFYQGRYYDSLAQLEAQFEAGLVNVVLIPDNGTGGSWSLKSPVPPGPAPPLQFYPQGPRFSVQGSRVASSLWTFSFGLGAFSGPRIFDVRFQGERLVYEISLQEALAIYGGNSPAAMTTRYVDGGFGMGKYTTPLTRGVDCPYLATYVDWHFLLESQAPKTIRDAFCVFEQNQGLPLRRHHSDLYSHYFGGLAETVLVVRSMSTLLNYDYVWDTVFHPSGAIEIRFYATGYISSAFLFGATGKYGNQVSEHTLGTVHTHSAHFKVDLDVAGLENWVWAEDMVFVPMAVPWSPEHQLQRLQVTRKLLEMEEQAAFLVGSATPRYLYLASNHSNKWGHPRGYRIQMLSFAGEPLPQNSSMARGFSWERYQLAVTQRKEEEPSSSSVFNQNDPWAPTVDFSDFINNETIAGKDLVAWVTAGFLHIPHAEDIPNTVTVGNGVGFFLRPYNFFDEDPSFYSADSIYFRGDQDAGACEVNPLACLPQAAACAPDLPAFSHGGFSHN
Experimental: As substrate a derivate of the beetle luciferin ((4S)-4,5-dihydro-2-(6-hydroxybenzothiazolyl)-4-thiazole-carboxylic acid) is used, which is oxidized at a primary amine moiety. After a spontaneous elimination and a catalyzed esterase reaction, the turnover of the luciferine by the luciferase is recorded as a signal of AOC3 activity.
Recombinant CHO cells, overexpressing the human (1500 cells/well), mouse (1000 cells/well) or rat (500 cells/well) AOC3 enzyme are diluted in reaction buffer and added in a volume of 15 μL to the wells. After incubation for 20 minutes at 37° C., 2 μL of MAO substrate (dissolved in DMSO at 16 mM, adjusted to assay concentration in reaction buffer to a final assay concentration of 20 μM) is added and further incubated for 60 minutes at 37° C. The turnover of the substrate is determined by the addition of 20 μL of the detection-mix which was generated by the addition of reconstitution buffer with esterase (PROMEGA, #V1402) to the luciferine detection reagent (PROMEGA, #V1402).

AOC1 = target: T2, AOC1 (Homo sapiens, UniProt P19801); assay: AOC1 biochemical assay (Amplex Red); details: Table 1; read-out: AOC1 IC50
T2 construct: purchased R&D Systems 8297-AO-010
T2 sequence (P19801 20-751): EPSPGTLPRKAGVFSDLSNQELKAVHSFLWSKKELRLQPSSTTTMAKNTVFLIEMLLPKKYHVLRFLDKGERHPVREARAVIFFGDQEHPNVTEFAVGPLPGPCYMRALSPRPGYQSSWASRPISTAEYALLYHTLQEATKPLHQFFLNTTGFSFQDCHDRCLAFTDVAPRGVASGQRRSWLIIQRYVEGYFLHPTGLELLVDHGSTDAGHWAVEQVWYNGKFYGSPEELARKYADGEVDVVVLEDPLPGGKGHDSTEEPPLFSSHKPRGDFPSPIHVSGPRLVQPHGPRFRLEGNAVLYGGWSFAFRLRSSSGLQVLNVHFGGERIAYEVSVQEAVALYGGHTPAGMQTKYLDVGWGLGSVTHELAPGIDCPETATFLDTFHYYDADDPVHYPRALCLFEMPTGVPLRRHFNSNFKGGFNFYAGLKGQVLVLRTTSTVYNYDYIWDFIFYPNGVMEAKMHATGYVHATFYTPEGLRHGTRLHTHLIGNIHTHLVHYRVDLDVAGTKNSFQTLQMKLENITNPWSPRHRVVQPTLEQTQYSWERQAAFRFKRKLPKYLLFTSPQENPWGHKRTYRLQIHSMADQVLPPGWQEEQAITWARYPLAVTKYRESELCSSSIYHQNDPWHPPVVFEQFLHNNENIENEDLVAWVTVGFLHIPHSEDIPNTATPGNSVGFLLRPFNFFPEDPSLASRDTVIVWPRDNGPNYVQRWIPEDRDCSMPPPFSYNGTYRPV
From the text: The Amplex® Red Assay (available from Thermo Fisher Scientific) provides a sensitive method for the detection of H2O2 generated during enzymatic reactions like the amine oxidation catalyzed by AOC1.

| Compound | death (pigs) | IC50 (AOC3) [nM] | IC50 (AOC1) [nM] | melting point [°C] |
| --- | --- | --- | --- | --- |
| N=C(N)NN [aminoguanidine] | 3 out of 15 |  |  |  |
| N=C(N)NC(=O)OCc1cccc(-c2cnc(OCCCC(F)(F)F)nc2)n1 [Example 36, [6-[2-(4,4,4-trifluorobutoxy)pyrimidin-5-yl]-2-pyridyl]methyl N-carbamimidoylcarbamate] |  | 5 | 1150 | 194 to 197 |
| CC(F)(F)COc1ncc(-c2cccc(COC(=O)NC(=N)N)n2)cn1 [Example 20, [6-[2-(2,2-difluoropropoxy)pyrimidin-5-yl]-2-pyridyl]methyl N-carbamimidoylcarbamate] |  | 5 | 7210 | 195 |
